“And” between values parts separate entries of the source, which are not always exact repeats. Identical values can stand only once. “Also recorded” adds a separate entry of the source. Like-named read-outs stand apart in the source and are kept apart here. Square brackets hold non-standard residues; d marks the D form. Peptide text beside a SMILES is read from it. Bip = N[C@@H](Cc1ccc(-c2ccccc2)cc1)C(=O)O; dBip = N[C@H](Cc1ccc(-c2ccccc2)cc1)C(=O)O; dPhe(4-I) = N[C@H](Cc1ccc(I)cc1)C(=O)O; 1Nal = N[C@@H](Cc1cccc2ccccc12)C(=O)O; Bta = N[C@@H](Cc1csc2ccccc12)C(=O)O; Tic = O=C(O)[C@@H]1Cc2ccccc2CN1; 2Thi = N[C@@H](Cc1cccs1)C(=O)O
What was measured:
[1] = target: T1, mMC4R (Mus musculus, UniProt P56450); experiment: CRE/β-galactosidase reporter gene bioassay, agonist activity at mMC4R; format: cell-based; conditions: ligand at 100 μM, compared to maximal response generated by α-MSH
[2] = target: T1, mMC4R; experiment: Antagonist Schild analysis against agonist MTII at mMC4R; format: cell-based; conditions: for mMC4R pharmacology class printed in Fold Diff. column (Ant, SA): Ant = antagonist, SA = some stimulatory activity at 100 µM
[3] = target: T2, mMC1R (Mus musculus, UniProt Q01727); experiment: CRE/β-galactosidase reporter gene bioassay, agonist activity at mMC1R; format: cell-based; conditions: for mMC1R Fold Diff: fold difference in EC50 vs peptide 1, negative prefix = more potent than 1; for EC50: mMC1R EC50, agonist, HEK-293 cells stably expressing receptor, ±SEM; for mMC1R pharmacology in words: comparisons are to reference peptide 1
[4] = target: T3, mMC3R (Mus musculus, UniProt P33033); experiment: cell-based; format: cell-based
[5] = target: T4, mMC5R (Mus musculus, UniProt P41149); experiment: CRE/β-galactosidase reporter gene bioassay, agonist activity at mMC5R; format: cell-based; conditions: for mMC5R pharmacology in words: comparisons are to reference peptide 1; for mMC5R Fold Diff.: fold difference in EC50 vs peptide 1, negative prefix = more potent than 1; for mMC5R fold less potent than peptide 1: less potent than 1
[6] = target: T3, mMC3R; experiment: Antagonist Schild analysis against agonist MTII at mMC3R; format: cell-based; conditions: for mMC3R pharmacology class printed in Fold Diff column (Ant, SA): Ant = antagonist, SA = some stimulatory activity at 100 µM
[7] = target: T3, mMC3R; conditions: read-out: mMC3R EC50, reference peptide from the literature, cited from earlier work
[8] = target: T4, mMC5R; conditions: read-out: mMC5R EC50, reference peptide from the literature, cited from earlier work
[9] = target: T2, mMC1R; conditions: read-out: mMC1R EC50, reference peptide from the literature, cited from earlier work
[10] = target: T1, mMC4R; conditions: read-out: mMC4R EC50; reference peptide from the literature; ref [31]; cited from earlier work
[11] = ligand at 100 μM, compared to maximal response generated by α-MSH

T3 sequence (P33033 whole entry): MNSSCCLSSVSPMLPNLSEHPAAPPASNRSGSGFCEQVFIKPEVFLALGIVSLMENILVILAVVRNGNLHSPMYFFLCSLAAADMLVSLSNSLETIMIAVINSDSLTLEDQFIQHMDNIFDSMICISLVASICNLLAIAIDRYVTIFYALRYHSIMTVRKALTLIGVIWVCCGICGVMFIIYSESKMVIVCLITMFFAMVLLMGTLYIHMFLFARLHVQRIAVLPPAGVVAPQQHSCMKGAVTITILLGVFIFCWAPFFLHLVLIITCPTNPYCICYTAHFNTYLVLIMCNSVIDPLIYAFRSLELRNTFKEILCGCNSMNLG
T1 sequence (P56450 whole entry): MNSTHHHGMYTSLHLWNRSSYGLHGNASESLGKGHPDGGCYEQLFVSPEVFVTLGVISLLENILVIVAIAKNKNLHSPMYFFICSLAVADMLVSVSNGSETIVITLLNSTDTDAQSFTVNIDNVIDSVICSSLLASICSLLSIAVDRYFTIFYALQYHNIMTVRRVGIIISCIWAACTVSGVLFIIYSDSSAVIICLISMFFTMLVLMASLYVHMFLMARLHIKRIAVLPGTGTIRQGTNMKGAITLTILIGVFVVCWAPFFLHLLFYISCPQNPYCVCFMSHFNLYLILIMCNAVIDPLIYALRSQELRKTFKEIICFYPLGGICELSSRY
T2 sequence (Q01727 whole entry): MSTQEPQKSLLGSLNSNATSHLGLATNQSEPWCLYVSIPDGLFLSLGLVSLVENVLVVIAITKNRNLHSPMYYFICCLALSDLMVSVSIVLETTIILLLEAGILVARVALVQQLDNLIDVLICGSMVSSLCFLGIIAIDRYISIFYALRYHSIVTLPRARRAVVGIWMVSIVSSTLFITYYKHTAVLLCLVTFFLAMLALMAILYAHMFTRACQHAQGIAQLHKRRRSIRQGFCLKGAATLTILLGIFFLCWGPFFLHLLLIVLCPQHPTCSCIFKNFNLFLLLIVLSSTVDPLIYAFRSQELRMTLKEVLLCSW
T4 sequence (P41149 whole entry): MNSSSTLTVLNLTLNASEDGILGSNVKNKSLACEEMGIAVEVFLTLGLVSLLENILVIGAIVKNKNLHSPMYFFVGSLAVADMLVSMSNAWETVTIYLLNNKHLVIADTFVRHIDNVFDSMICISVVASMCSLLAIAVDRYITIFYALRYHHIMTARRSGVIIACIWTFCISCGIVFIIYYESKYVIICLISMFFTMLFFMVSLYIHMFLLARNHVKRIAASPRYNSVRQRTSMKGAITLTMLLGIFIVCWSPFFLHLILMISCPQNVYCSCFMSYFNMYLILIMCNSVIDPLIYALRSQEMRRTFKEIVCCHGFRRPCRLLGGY

Compound	mMC4R relative percentage of stimulation at 100 μM [1]	Kb [2]	mMC4R pharmacology class printed in Fold Diff. column (Ant, SA) [2]	EC50 [3]	mMC3R relative percentage of stimulation at 100 μM [4, 11]	EC50 [5]	mMC5R pharmacology in words [5]	Kb [6]	mMC3R pharmacology class printed in Fold Diff column (Ant, SA) [6]	other results
CCCCCCCC(=O)N[C@@H](Cc1c[nH]cn1)C(=O)N[C@H](Cc1ccc(I)cc1)C(=O)N[C@@H](CCCNC(=N)N)C(=O)N[C@@H](Cc1c[nH]c2ccccc12)C(N)=O [Peptide 6, Octanoyl-His-(pI)DPhe-Arg-Trp-NH2]	30%	0.00251 µM	Ant	0.0063 ± 0.0024 µM	50%	0.0058 ± 0.0017 µM	equipotent	0.00501 µM	Ant	Ki [2]: ~0.003 µM; mMC1R Fold Diff [3]: −22; mMC3R relative percentage of stimulation at 100 μM ([4]; 100000.0): 50%−65%
CC(=O)N[C@@H](Cc1cccs1)C(=O)N[C@H](Cc1ccc(I)cc1)C(=O)N[C@@H](CCCNC(=N)N)C(=O)N[C@@H](Cc1c[nH]c2ccccc12)C(N)=O [Peptide 14, Ac-2Thi-(pI)DPhe-Arg-Trp-NH2] (Ac-[2Thi][dPhe(4-I)]RW-NH2)	55%	0.00398 µM	SA Ant	0.49 ± 0.15 µM	40%	0.071 ± 0.03 µM	–	0.0398 µM	SA Ant	mMC1R pharmacology in words [3]: equipotent; mMC5R Fold Diff. [5]: 14; mMC5R fold less potent than peptide 1 [5]: 11- to 25 fold
CC(=O)N[C@@H](Cc1ccccc1)C(=O)N[C@H](Cc1ccc(I)cc1)C(=O)N[C@@H](CCCNC(=N)N)C(=O)N[C@@H](Cc1c[nH]c2ccccc12)C(N)=O [Peptide 15, Ac-Phe-(pI)DPhe-Arg-Trp-NH2] (Ac-F[dPhe(4-I)]RW-NH2)	30%	0.02 µM	SA Ant	0.82 ± 0.32 µM	20%	0.14 ± 0.03 µM	–	0.126 µM	SA Ant	mMC1R Fold Diff [3]: 6; mMC5R Fold Diff. [5]: 25; mMC5R fold less potent than peptide 1 [5]: 11- to 25 fold
CC(=O)N[C@@H](Cc1c[nH]cn1)C(=O)N[C@H](Cc1ccc(I)cc1)C(=O)N[C@@H](CCCNC(=N)N)C(=O)N[C@@H](Cc1ccc(-c2ccccc2)cc1)C(N)=O [Peptide 29, Ac-His-(pI)DPhe-Arg-Bip-NH2] (Ac-H[dPhe(4-I)]R[Bip]-NH2)	30%	0.0398 µM	SA Ant	0.047 ± 0.009 µM	35%	0.0124 ± 0.002 µM	equipotent agonists; also recorded: very potent nanomolar agonist activity	0.2 µM	SA Ant	–
CC(=O)N[C@@H](Cc1c[nH]cn1)C(=O)N[C@H](Cc1ccc(I)cc1)C(=O)N[C@@H](CCCNC(=N)N)C(=O)N[C@@H](Cc1csc2ccccc12)C(N)=O [Peptide 30, Ac-His-(pI)DPhe-Arg-3Bal-NH2] (Ac-H[dPhe(4-I)]R[Bta]-NH2)	50%	0.01 µM	SA Ant	0.045 ± 0.014 µM	25%	0.0032 ± 0.0007 µM	equipotent agonists; also recorded: very potent nanomolar agonist activity	0.0398 µM	SA Ant	–
CC(=O)N[C@@H](Cc1c[nH]cn1)C(=O)N[C@H](Cc1ccc(-c2ccccc2)cc1)C(=O)N[C@@H](CCCNC(=N)N)C(=O)N[C@@H](Cc1csc2ccccc12)C(N)=O [Peptide 34, Ac-His-DBip-Arg-3Bal-NH2] (Ac-H[dBip]R[Bta]-NH2)	65%	0.02 µM	SA Ant	0.009 µM and 0.0089 µM	55%	0.0069 ± 0.0002 µM	equipotent agonists	0.316 µM	SA Ant	mMC1R pharmacology in words [3]: more potent; mMC1R Fold Diff [3]: −16; mMC1R fold difference in EC50, more potent than reference peptide 1 ([3]; more potent agonist than 1): 16 fold
CC(=O)N[C@@H](Cc1cccs1)C(=O)N[C@H](Cc1ccccc1)C(=O)N[C@@H](CCCNC(=N)N)C(=O)N[C@@H](Cc1c[nH]c2ccccc12)C(N)=O [Peptide 52, Ac-2Thi-DPhe-Arg-Trp-NH2] (Ac-[2Thi][dF]RW-NH2)	–	–	–	–	–	–	–	–	–	EC50 ([7]; ref [33]): 3 ± 0.3 µM; EC50 ([8]; ref [33]): 0.041 ± 0.013 µM; EC50 ([9]; ref [33]): 0.2 ± 0.04 µM; selectivity between the mMC1R and the mMC5R ([5]; monosubstituted reference peptides, from literature EC50 values of Table 3): ≤ 5 fold
Ac-DHis-DPhe-Arg-Trp-NH2 [Peptide 53]	–	–	–	–	–	–	–	–	–	EC50 ([7]; ref [33]): 6.2 ± 2.5 µM; EC50 ([8]; ref [33]): 0.14 ± 0.02 µM
Ac-H[dF]R[1Nal]-NH2 [Peptide 38]	–	–	–	–	–	–	–	–	–	EC50 ([7]; ref [31]): 3.5 ± 1.3 µM; EC50 [10]: 0.26 ± 0.03 µM; EC50 ([8]; ref [31]): 0.033 ± 0.004 µM; EC50 ([9]; ref [31]): 0.73 ± 0.32 µM
Ac-H[dF]R[Bip]-NH2 [Peptide 42]	–	–	–	–	–	–	–	–	–	EC50 ([7]; ref [31]): 13 ± 0.8 µM; EC50 [10]: 2.7 ± 0.5 µM; EC50 ([8]; ref [31]): 0.1 ± 0.02 µM; EC50 ([9]; ref [31]): 0.052 ± 0.01 µM
Ac-H[dF]R[Tic]-NH2 [Peptide 41]	–	–	–	–	–	–	–	–	–	EC50 ([7]; ref [31]): 23 ± 2 µM; EC50 [10]: 8.5 ± 0.9 µM; EC50 ([8]; ref [31]): 0.7 ± 0.1 µM; EC50 ([9]; ref [31]): 0.043 ± 0.013 µM

Source: publication PMC6261661 (ACS chemical neuroscience, 2018)
